The values below come from patent US10947289B2, “Glyco-modified atrial natriuretic peptide” (priority 2013, dated 2021).

In this assay the target is T1, human GC-A (Homo sapiens, UniProt P16066).
T1 construct: expressed in transfected cells; host or cells: CHO cells
T1 sequence (P16066 33-1061): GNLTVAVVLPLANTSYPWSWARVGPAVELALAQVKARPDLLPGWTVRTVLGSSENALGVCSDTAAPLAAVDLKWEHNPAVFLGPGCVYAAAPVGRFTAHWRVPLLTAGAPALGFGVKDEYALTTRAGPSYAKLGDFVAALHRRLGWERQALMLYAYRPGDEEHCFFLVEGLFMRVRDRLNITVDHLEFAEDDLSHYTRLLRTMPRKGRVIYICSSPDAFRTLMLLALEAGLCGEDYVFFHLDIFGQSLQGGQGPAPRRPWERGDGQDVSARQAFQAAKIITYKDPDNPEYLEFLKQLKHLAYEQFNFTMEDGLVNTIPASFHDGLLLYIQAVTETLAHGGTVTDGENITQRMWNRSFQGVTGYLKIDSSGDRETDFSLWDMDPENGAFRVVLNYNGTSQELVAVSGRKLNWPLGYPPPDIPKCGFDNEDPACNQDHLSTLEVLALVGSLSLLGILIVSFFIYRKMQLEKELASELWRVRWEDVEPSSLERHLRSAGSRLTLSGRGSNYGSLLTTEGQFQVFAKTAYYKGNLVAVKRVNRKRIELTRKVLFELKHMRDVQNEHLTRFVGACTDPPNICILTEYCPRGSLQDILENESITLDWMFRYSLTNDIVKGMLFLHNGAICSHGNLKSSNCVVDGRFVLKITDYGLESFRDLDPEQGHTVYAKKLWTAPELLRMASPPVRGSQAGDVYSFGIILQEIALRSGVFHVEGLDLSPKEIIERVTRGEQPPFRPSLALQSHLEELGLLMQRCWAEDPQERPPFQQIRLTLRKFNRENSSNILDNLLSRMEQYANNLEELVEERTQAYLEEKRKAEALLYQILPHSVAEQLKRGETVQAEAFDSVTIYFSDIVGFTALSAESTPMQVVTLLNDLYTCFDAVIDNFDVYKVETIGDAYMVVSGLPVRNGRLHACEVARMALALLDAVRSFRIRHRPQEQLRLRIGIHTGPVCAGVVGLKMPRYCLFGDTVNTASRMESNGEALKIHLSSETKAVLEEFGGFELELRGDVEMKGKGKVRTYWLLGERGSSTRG
The assay is described as follows: cGMP elevating activity in CHO/human GC-A cells (Test Example 1). It is filed as cell-based. The protocol:
The cGMP elevating activity of each modified peptide prepared in Example 2 was measured by the following method:
CHO/human GC-A cells, which are CHO cells constitutively expressing human GC-A, were suspended at 2×10^5 cells/ml in α-MEM, 10% FBS, and 1% penicillin-streptomycin, inoculated at 20 μl/well (4×10^3 cells/well) onto a 384-well plate (Corning, 3826), and cultured overnight in a CO2 incubator. On the next day, the medium was removed from this plate, and then, 1.6 mM IBMX/KRB buffer was added thereto at 10 μl/well. The mixture was stirred on a plate shaker and then incubated at room temperature for 10 minutes. […] The mixture was stirred on a plate shaker and then incubated for 15 minutes in a CO2 incubator. Thereafter, a lysis buffer (50 mM phosphate buffer, pH 7.0, and 1% Triton X-100) was added thereto at 5 μl/well. The cells were lysed by stirring for 10 minutes on a plate shaker. Subsequently, the cGMP levels in the cell lysates were measured by use of a cGMP kit (manufactured by Cisbio Bioassays). Specifically, to a 384-well plate (Greiner, 784076), 5 μl/well of a diluent attached to the kit, 5 μl/well of the cell lysate, 5 μl/well of cGMP-d2, and 5 μl/well of anti cGMP-Cryptate were added. The mixture was stirred on a plate shaker and then incubated overnight at 4° C. in the dark, followed by the measurement of homogeneous time-resolved fluorescence using RubyStar (manufactured by BMG LABTECH JAPAN Ltd.). The activity value (T/C) of the test substance at each concentration was calculated when the activity value of a well supplemented with only a solvent was defined as 0 and the activity value of a well supplemented with 1 nM ANP was defined as 1.

Like-named read-outs stand apart in the source and are kept apart here. *1 amine or outer side, *2 acyl side, *3 side chain or, on linkers, in order; H or OH if unused. Where a SMILES comes first, the peptide text is derived from it. Bridges are numbered along the chain shown (N, C = ends). [ ]: non-standard residue; d: D form. X2 = CC(=O)N[C@H]1[C@H](O[C@H]2[C@H](O)[C@@H](NC(C)=O)[C@H](OC[C@H](N[*:1])C(=O)[*:2])O[C@@H]2CO)O[C@H](CO)[C@@H](O[C@@H]2O[C@H](CO[C@H]3O[C@H](CO)[C@@H](O)[C@H](O)[C@@H]3O[C@@H]3O[C@H](CO)[C@@H](O[C@@H]4O[C@H](CO[C@]5(C(=O)O)C[C@H](O)[C@@H](NC(C)=O)[C@H]([C@H](O)[C@H](O)CO)O5)[C@H](O)[C@H](O)[C@H]4O)[C@H](O)[C@H]3NC(C)=O)[C@@H](O)[C@H](O[C@H]3O[C@H](CO)[C@@H](O)[C@H](O)[C@@H]3O[C@@H]3O[C@H](CO)[C@@H](O[C@@H]4O[C@H](CO[C@]5(C(=O)O)C[C@H](O)[C@@H](NC(C)=O)[C@H]([C@H](O)[C@H](O)CO)O5)[C@H](O)[C@H](O)[C@H]4O)[C@H](O)[C@H]3NC(C)=O)[C@@H]2O)[C@@H]1O

The term EC50 denotes the midpoint of the concentration-response curve. `CC[C@H](C)[C@@H]1NC(=O)[C@H](CCCNC(=N)N)NC(=O)[C@H](CC(=O)O)NC(=O)[C@H](CCSC)NC(=O)[C@H](CCCNC(=N)N)NC(=O)CNC(=O)CNC(=O)[C@H](Cc2ccccc2)NC(=O)[C@@H](NC(=O)[C@H](CO)NC(=O)[C@H](CO)NC(=O)[C@H](CCCNC(=N)N)NC(=O)[C@H](CCCNC(=N)N)NC(=O)[C@H](CC(C)C)NC(=O)[C@@H](N)CO[C@@H]2O[C@H](CO)[C@@H](O[C@@H]3O[C@H](CO)[C@@H](O[C@@H]4O[C@H](CO[C@H]5O[C@H](CO)[C@@H](O)[C@H](O)[C@@H]5O[C@@H]5O[C@H](CO)[C@@H](O[C@@H]6O[C@H](CO[C@]7(C(=O)O)C[C@H](O)[C@@H](NC(C)=O)[C@H]([C@H](O)[C@H](O)CO)O7)[C@H](O)[C@H](O)[C@H]6O)[C@H](O)[C@H]5NC(C)=O)[C@@H](O)[C@H](O[C@H]5O[C@H](CO)[C@@H](O)[C@H](O)[C@@H]5O[C@@H]5O[C@H](CO)[C@@H](O[C@@H]6O[C@H](CO[C@]7(C(=O)O)C[C@H](O)[C@@H](NC(C)=O)[C@H]([C@H](O)[C@H](O)CO)O7)[C@H](O)[C@H](O)[C@H]6O)[C@H](O)[C@H]5NC(C)=O)[C@@H]4O)[C@H](O)[C@H]3NC(C)=O)[C@H](O)[C@H]2NC(C)=O)CSSC[C@@H](C(=O)N[C@@H](CC(N)=O)C(=O)N[C@@H](CO)C(=O)N[C@@H](Cc2ccccc2)C(=O)N[C@@H](CCCNC(=N)N)C(=O)N[C@@H](Cc2ccc(O)cc2)C(=O)O)NC(=O)CNC(=O)[C@H](CC(C)C)NC(=O)CNC(=O)[C@H](CO)NC(=O)[C@H](CCC(N)=O)NC(=O)[C@H](C)NC(=O)CNC1=O` [Compound 2-5, (SG-)Ser-hANP(2-28)] (H-[X2]LRRSSCFGGRMDRIGAQSGLGCNSFRY-OH; disulfide 7-23) came in with a concentration for a half-maximal effect (EC50) of 0.082 nM.

The molecule `CC[C@H](C)[C@@H]1NC(=O)[C@H](CCCNC(=N)N)NC(=O)[C@H](CC(=O)O)NC(=O)[C@H](CCSC)NC(=O)[C@H](CCCNC(=N)N)NC(=O)CNC(=O)CNC(=O)[C@H](Cc2ccccc2)NC(=O)[C@@H](NC(=O)[C@H](CO)NC(=O)[C@H](CO)NC(=O)[C@H](CCCNC(=N)N)NC(=O)[C@H](CCCNC(=N)N)NC(=O)[C@H](CC(C)C)NC(=O)[C@H](CO)NC(=O)CCOCCOCCOCCOCCOCCOCCOCCOCCOCCOCCOCCOCCNC(=O)CCOCCOCCOCCOCCOCCOCCOCCOCCOCCOCCOCCOCCNC(=O)[C@H](CC(=O)N[C@@H]2O[C@H](CO)[C@@H](O[C@@H]3O[C@H](CO)[C@@H](O[C@@H]4O[C@H](CO[C@H]5O[C@H](CO)[C@@H](O)[C@H](O)[C@@H]5O[C@@H]5O[C@H](CO)[C@@H](O[C@@H]6O[C@H](CO[C@]7(C(=O)O)C[C@H](O)[C@@H](NC(C)=O)[C@H]([C@H](O)[C@H](O)CO)O7)[C@H](O)[C@H](O)[C@H]6O)[C@H](O)[C@H]5NC(C)=O)[C@@H](O)[C@H](O[C@H]5O[C@H](CO)[C@@H](O)[C@H](O)[C@@H]5O[C@@H]5O[C@H](CO)[C@@H](O[C@@H]6O[C@H](CO[C@]7(C(=O)O)C[C@H](O)[C@@H](NC(C)=O)[C@H]([C@H](O)[C@H](O)CO)O7)[C@H](O)[C@H](O)[C@H]6O)[C@H](O)[C@H]5NC(C)=O)[C@@H]4O)[C@H](O)[C@H]3NC(C)=O)[C@H](O)[C@H]2NC(C)=O)NC(=O)CO[C@@H]2O[C@H](CO)[C@@H](O[C@@H]3O[C@H](CO)[C@@H](O[C@@H]4O[C@H](CO[C@H]5O[C@H](CO)[C@@H](O)[C@H](O)[C@@H]5O[C@@H]5O[C@H](CO)[C@@H](O[C@@H]6O[C@H](CO[C@]7(C(=O)O)C[C@H](O)[C@@H](NC(C)=O)[C@H]([C@H](O)[C@H](O)CO)O7)[C@H](O)[C@H](O)[C@H]6O)[C@H](O)[C@H]5NC(C)=O)[C@@H](O)[C@H](O[C@H]5O[C@H](CO)[C@@H](O)[C@H](O)[C@@H]5O[C@@H]5O[C@H](CO)[C@@H](O[C@@H]6O[C@H](CO[C@]7(C(=O)O)C[C@H](O)[C@@H](NC(C)=O)[C@H]([C@H](O)[C@H](O)CO)O7)[C@H](O)[C@H](O)[C@H]6O)[C@H](O)[C@H]5NC(C)=O)[C@@H]4O)[C@H](O)[C@H]3NC(C)=O)[C@H](O)[C@H]2NC(C)=O)CSSC[C@@H](C(=O)N[C@@H](CC(N)=O)C(=O)N[C@@H](CO)C(=O)N[C@@H](Cc2ccccc2)C(=O)N[C@@H](CCCNC(=N)N)C(=O)N[C@@H](Cc2ccc(O)cc2)C(=O)O)NC(=O)CNC(=O)[C@H](CC(C)C)NC(=O)CNC(=O)[C@H](CO)NC(=O)[C@H](CCC(N)=O)NC(=O)[C@H](C)NC(=O)CNC1=O` [Compound 2-28, SG-(SG-)Asn-PEG(11)-PEG(11)-hANP(1-28)] registered a half-maximal effective concentration (EC50) of 0.31 nM.

`CC[C@H](C)[C@@H]1NC(=O)[C@H](CCCNC(=N)N)NC(=O)[C@H](CC(=O)O)NC(=O)[C@H](CCSC)NC(=O)[C@H](CCCNC(=N)N)NC(=O)CNC(=O)CNC(=O)[C@H](Cc2ccccc2)NC(=O)[C@@H](NC(=O)[C@H](CO)NC(=O)[C@H](CO)NC(=O)[C@H](CCCNC(=N)N)NC(=O)[C@H](CCCNC(=N)N)NC(=O)[C@H](CC(C)C)NC(=O)[C@H](CO)NC(=O)CCOCCOCCOCCOCCNC(=O)CCSC2CC(=O)N(CCC(=O)N[C@@H](CCC(=O)NCCO[C@@H]3O[C@H](CO)[C@@H](O[C@@H]4O[C@H](CO)[C@@H](O[C@@H]5O[C@H](CO[C@H]6O[C@H](CO)[C@@H](O)[C@H](O)[C@@H]6O[C@@H]6O[C@H](CO)[C@@H](O[C@@H]7O[C@H](CO[C@]8(C(=O)O)C[C@H](O)[C@@H](NC(C)=O)[C@H]([C@H](O)[C@H](O)CO)O8)[C@H](O)[C@H](O)[C@H]7O)[C@H](O)[C@H]6NC(C)=O)[C@@H](O)[C@H](O[C@H]6O[C@H](CO)[C@@H](O)[C@H](O)[C@@H]6O[C@@H]6O[C@H](CO)[C@@H](O[C@@H]7O[C@H](CO[C@]8(C(=O)O)C[C@H](O)[C@@H](NC(C)=O)[C@H]([C@H](O)[C@H](O)CO)O8)[C@H](O)[C@H](O)[C@H]7O)[C@H](O)[C@H]6NC(C)=O)[C@@H]5O)[C@H](O)[C@H]4NC(C)=O)[C@H](O)[C@H]3NC(C)=O)C(=O)NCCO[C@@H]3O[C@H](CO)[C@@H](O[C@@H]4O[C@H](CO)[C@@H](O[C@@H]5O[C@H](CO[C@H]6O[C@H](CO)[C@@H](O)[C@H](O)[C@@H]6O[C@@H]6O[C@H](CO)[C@@H](O[C@@H]7O[C@H](CO[C@]8(C(=O)O)C[C@H](O)[C@@H](NC(C)=O)[C@H]([C@H](O)[C@H](O)CO)O8)[C@H](O)[C@H](O)[C@H]7O)[C@H](O)[C@H]6NC(C)=O)[C@@H](O)[C@H](O[C@H]6O[C@H](CO)[C@@H](O)[C@H](O)[C@@H]6O[C@@H]6O[C@H](CO)[C@@H](O[C@@H]7O[C@H](CO[C@]8(C(=O)O)C[C@H](O)[C@@H](NC(C)=O)[C@H]([C@H](O)[C@H](O)CO)O8)[C@H](O)[C@H](O)[C@H]7O)[C@H](O)[C@H]6NC(C)=O)[C@@H]5O)[C@H](O)[C@H]4NC(C)=O)[C@H](O)[C@H]3NC(C)=O)C2=O)CSSC[C@@H](C(=O)N[C@@H](CC(N)=O)C(=O)N[C@@H](CO)C(=O)N[C@@H](Cc2ccccc2)C(=O)N[C@@H](CCCNC(=N)N)C(=O)N[C@@H](Cc2ccc(O)cc2)C(=O)O)NC(=O)CNC(=O)[C@H](CC(C)C)NC(=O)CNC(=O)[C@H](CO)NC(=O)[C@H](CCC(N)=O)NC(=O)[C@H](C)NC(=O)CNC1=O` (some centres unmarked) [Compound 2-31, SG-(SG-)Gln*-Mal-PEG(3)-hANP(1-28)]: the EC50 was 0.31 nM.

Take “[(SG2-)Cys-Gly]5-hANP(1-28) [Compound 2-18]”: the concentration for a half-maximal effect (EC50) (CHO/human GC-A cells, concentration at T/C=0.5, 15 minutes incubation, read-out: EC50) was 48 nM. In addition, the Emax (maximum T/C in range 0.01-100 nM, solvent only = 0, 1 nM ANP = 1) is on record as 0.63.
